Results on one molecule are retold here after publication PMC6199279, “Design of Peptoid-peptide Macrocycles to Inhibit the β-catenin TCF Interaction in Prostate Cancer” (Nature Communications, 2018).

pIC50: −log10 of the molar value. Numbered stars: 1 amine (or outer) side, 2 acyl side, 3 side chain; on linkers, the order of the positions; unused ones are H or OH. Square brackets hold non-standard residues; d marks the D form. Peptide text beside a SMILES is read from it. N(2-(2-PhOPh)Et)Gly = O=C(O)CNCCc1ccccc1Oc1ccccc1; Gly(N-3,5-(OMe)2-Ph) = COc1cc(NCC(=O)O)cc(OC)c1; X1 = COc1ccc([C@H](C)N(CC(=O)[*:2])[*:1])cc1; N((CH2)3OiPr)Gly = CC(C)OCCCNCC(=O)O

The test concerns AR luciferase reporter (3xARE). Briefly: 3x-Androgen Response Element (ARE) luciferase reporter assay in LNCaP-abl cells. It is filed as cell-based. From the text: Using a TOP-Flash Wnt luciferase reporter, we tested the 12 oligomers identified from in silico modeling for inhibitory activity (Fig. 2b). […] We also employed a 3 × -Androgen Response Element (ARE) luciferase reporter to measure the effect on AR activity. […] As additional controls, we obtained previously developed, commercially available Wnt inhibitors and tested them in the Wnt luciferase assay (Supplementary Fig. 5).
We next characterized the dose response curves for compound 13 in the Wnt and AR luciferase reporters. The linear version of 13 (linear 13: NH2-|N-mpp, N-dmp, N-ipp, N-Smpe, N-Smpe, D-Ala|-OH) was used as a control compound. […] To test direct binding, we pre-formed dynamic light scattering (DLS) with β-catenin in the presence of vehicle, compound 13, and α-cyclodextrin. […] HEK293 cells were transiently transfected with a plasmid expressing full length, myc-tagged TCF4. After 48 h treatment with either vehicle (DMSO) or 10 µM 13, cells were lysed and myc-TCF4 protein was immunoprecipitated.
LNCaP-abl and LNCaP-95 cells were cultured in indicator free RPMI 1640 media (Life) supplemented with 10% charcoal stripped FBS, 1% pennicillin/streptomycin, and 1% L-Glutamine. HEK-293 Cells were cultured in DMEM media (Life) supplemented with 10%FBS and 1% pennicillin/streptomycin. A549 and U2OS cells were cultured in RPMI 1640 media (Life) and McCoy’s 5 A modified media (Life), respectively, both supplemented with 10%FBS and 1% pennicillin/streptomycin. LNCaP-abl, and LNCaP-95 cell lines were generous gifts from Z. Culig (Innsbruck Medical University, Austria) and J. Isaacs (Johns Hopkins University, Baltimore, MD), respectively. Cell lines were authenticated by STR profiling (Genetica Cell Line Testing; Burlington, NC). […] Both were measured using the ONE-Glo detection kit (Promega) and data is standardized to CellTiter-Fluor (Promega) viability readings to account for potential variations in well to well cell number. […] Total protein concentration in cell lysates were determined using Pierce Rapid Gold BCA Protein Assay Kit (Thermo). […]
Background: In a reporter assay the amount or activity of a reporter protein is the signal.

Turning to `COc1ccc([C@H](C)N2CC(=O)N[C@H](C)C(=O)N(CCc3ccccc3Oc3ccccc3)CC(=O)N(c3cc(OC)cc(OC)c3)CC(=O)N(CCCOC(C)C)CC(=O)N([C@@H](C)c3ccc(OC)cc3)CC2=O)cc1` [Compound 13] (cyclo([dA][N(2-(2-PhOPh)Et)Gly][Gly(N-3,5-(OMe)2-Ph)][N((CH2)3OiPr)Gly][X1][X1])), the “Inhibition of AR signaling (3xARE luciferase)” value (10 µM compound, relative to vehicle) is “more effective”. Further, where the note is “3xARE LNCaP-abl cells, 48 h compound, androgen-activated, read-out: IC50 for inhibition of the AR luciferase reporter”, the pIC50 was 5.99.

What is called pIC50 is the IC50 on a negative log10 scale, so that one unit is a factor of ten.
